In US20230089867A1, “CYCLIC PENTAMER COMPOUNDS AS PROPROTEIN CONVERTASE SUBTILISIN/KEXIN TYPE 9 (PCSK9) INHIBITORS FOR THE TREATMENT OF METABOLIC DISORDER” (Novartis AG, priority 2018, published 2023):

Molecular target: human PCSK9 (Homo sapiens, UniProt Q8NBP7)
Assay: PCSK9 ligand binding TR-FRET assay (interference with binding of human PCSK9 to human LDLR)
Conditions: for Max % inhibition: PCSK9 FRET assay, efficacy (Amax), 100% = 1 uM unlabeled human PCSK9, 0% = DMSO; for IC50: TR-FRET, human PCSK9 Alexa Fluor 647 / human LDLR extracellular domain-Europium Kryptate, read-out: PCSK9 FRET Assay IC50
Procedure, shortened: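 Threefold compound dilutions were pre-incubated 30 min with PCSK9, after which 4 nM Europium Kryptate-tagged human LDLR ectodomain was added for a further 2 h.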

Chain of human PCSK9 (Q8NBP7 153-692): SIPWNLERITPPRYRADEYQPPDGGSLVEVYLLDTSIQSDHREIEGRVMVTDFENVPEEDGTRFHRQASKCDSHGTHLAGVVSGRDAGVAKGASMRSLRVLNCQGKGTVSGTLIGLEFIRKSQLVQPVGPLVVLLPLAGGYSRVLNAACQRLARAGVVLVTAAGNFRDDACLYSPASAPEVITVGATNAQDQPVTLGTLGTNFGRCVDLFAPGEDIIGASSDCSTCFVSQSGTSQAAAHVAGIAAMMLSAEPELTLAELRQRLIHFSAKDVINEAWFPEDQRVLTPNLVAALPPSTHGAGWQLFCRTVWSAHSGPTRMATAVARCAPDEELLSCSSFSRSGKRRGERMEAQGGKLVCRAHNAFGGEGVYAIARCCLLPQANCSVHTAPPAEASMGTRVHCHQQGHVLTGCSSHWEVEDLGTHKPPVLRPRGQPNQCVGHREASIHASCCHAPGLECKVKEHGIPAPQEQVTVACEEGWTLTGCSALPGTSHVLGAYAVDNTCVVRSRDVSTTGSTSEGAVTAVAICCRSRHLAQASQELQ
Chain of human PCSK9 (Q8NBP7 31-152 partner limits assumed): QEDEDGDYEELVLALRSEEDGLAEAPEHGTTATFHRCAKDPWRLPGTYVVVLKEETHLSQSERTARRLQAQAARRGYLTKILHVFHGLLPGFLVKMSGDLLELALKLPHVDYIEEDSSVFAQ

| Max % inhibition [%] | IC50 [nM] | SMILES |
| --- | --- | --- |
| 91.51 | 3.5 | C[C@H]1CNC(=O)C[C@H](Cc2ccc(Cl)cc2)N(C)C(=O)[C@H](CC(=O)O)NC(=O)[C@H](C)N(Cc2ccc(Cl)cc2Oc2ccc(-c3cnc(CN(C)C)n3C)cc2)C(=O)C[C@@H](Cc2ccccc2)C(=O)N1C [Compound 213, 2-((2S,5S,8S,13S,16R)-16-benzyl-1-(4-chloro-2-(4-(2-((dimethylamino)methyl)-1-methyl-1H-imidazol-5-yl)phenoxy)benzyl)-8-(4-chlorobenzyl)-2,7,13,14-tetramethyl-3,6,10,15,18-pentaoxo-1,4,7,11,14-pentaazacyclooctadecan-5-yl)acetic acid] |
| 95.08 | 11 | COC[C@@H]1NC(=O)[C@H](C)N(Cc2ccc(Cl)cc2Oc2ccc(-c3cnc(CN(C)C)n3C)cc2)C(=O)C[C@@H](C2CC2)C(=O)N(C)[C@@H](C)CNC(=O)C[C@H](Cc2ccc(Cl)cc2)N(C)C1=O [Compound 215, (2S,5S,8S,13S)-1-(4-chloro-2-(4-(2-((dimethylamino)methyl)-1-methyl-1H-imidazol-5-yl)phenoxy)benzyl)-8-(4-chlorobenzyl)-16-cyclopropyl-5-(methoxymethyl)-2,7,13,14-tetramethyl-1,4,7,11,14-pentaazacyclooctadecane-3,6,10,15,18-pentaone] |
| 98.35 | 1.4 | CNC(=O)C[C@@H]1NC(=O)[C@H](C)N(Cc2ccc(Cl)cc2Oc2ccc(-c3cnc(CN(C)C)n3C)cc2)C(=O)C[C@@H](Cc2ccccc2)C(=O)N(C)[C@@H](C)CNC(=O)C[C@H](Cc2ccc(Cl)cc2)N(C)C1=O [Compound 221, 2-((2S,5S,8S,13S,16R)-16-benzyl-1-(4-chloro-2-(4-(2-((dimethylamino)methyl)-1-methyl-1H-imidazol-5-yl)phenoxy)benzyl)-8-(4-chlorobenzyl)-2,7,13,14-tetramethyl-3,6,10,15,18-pentaoxo-1,4,7,11,14-pentaazacyclooctadecan-5-yl)-N-methylacetamide] |
| 95.15 | 650 | COC[C@@H]1NC(=O)[C@H](C)N(Cc2ccc(Cl)cc2Oc2ccc(-c3cnc(CN(C)C)n3C)cc2)C(=O)C[C@@H](Cc2ccccc2)C(=O)N(C)[C@@H]2CCOC[C@H]2NC(=O)C[C@H](Cc2ccc(Cl)cc2)N(C)C1=O [Compound 224, (4S,7S,10S,14R,16aR,20aS)-14-benzyl-11-(4-chloro-2-(4-(2-((dimethylamino)methyl)-1-methyl-1H-imidazol-5-yl)phenoxy)benzyl)-4-(4-chlorobenzyl)-7-(methoxymethyl)-5,10,16-trimethyltetradecahydro-1H-pyrano[3,4-l][1,4,7,11,14]pentaazacyclooctadecine-2,6,9,12,15(3H)-pentaone] |
| 104.70 | 8.8 | COC[C@@H]1NC(=O)[C@H](C)N(Cc2ccc(Cl)cc2Oc2ccc(-c3cnc(CN(C)C)n3C)cc2)C(=O)CN2C[C@H](CNC(=O)C[C@H](Cc3ccc(Cl)cc3)N(C)C1=O)N(C)C2=O [Compound 227, (5S,8S,11S,16S)-4-(4-chloro-2-(4-(2-((dimethylamino)methyl)-1-methyl-1H-imidazol-5-yl)phenoxy)benzyl)-11-(4-chlorobenzyl)-8-(methoxymethyl)-5,10,17-trimethyl-1,4,7,10,14,17-hexaazabicyclo[14.2.1]nonadecane-3,6,9,13,18-pentaone] |

Second part, the compound before the results:

| SMILES | Max % inhibition [%] | IC50 [nM] |
| --- | --- | --- |
| COC[C@@H]1NC(=O)[C@H](C)N(Cc2ccc(Cl)cc2Oc2ccc(-c3cnc4c(c3)CN(C(=O)[C@@H]3CCNC3)CC4)cc2)C(=O)C[C@@H](Cc2ccccc2)C(=O)N(C)[C@@H](C)CNC(=O)C[C@H](Cc2ccc(Cl)cc2)N(C)C1=O [Compound 212, (2S,5S,8S,13S,16R)-16-benzyl-1-(4-chloro-2-(4-(6-((R)-pyrrolidine-3-carbonyl)-5,6,7,8-tetrahydro-1,6-naphthyridin-3-yl)phenoxy)benzyl)-8-(4-chlorobenzyl)-5-(methoxymethyl)-2,7,13,14-tetramethyl-1,4,7,11,14-pentaazacyclooctadecane-3,6,10,15,18-pentaone] | 71.82 | 5.4 |
| COC[C@@H]1NC(=O)[C@H](C)N(Cc2ncccc2Oc2ccc(-c3cnc(CN(C)C)n3C)cc2)C(=O)C[C@@H](Cc2ccccc2)C(=O)N(C)[C@@H](C)CNC(=O)C[C@H](Cc2ccc(Cl)cc2)N(C)C1=O [Compound 214, (2S,5S,8S,13S,16R)-16-benzyl-8-(4-chlorobenzyl)-1-((3-(4-(2-((dimethylamino)methyl)-1-methyl-1H-imidazol-5-yl)phenoxy)pyridin-2-yl)methyl)-5-(methoxymethyl)-2,7,13,14-tetramethyl-1,4,7,11,14-pentaazacyclooctadecane-3,6,10,15,18-pentaone] | 97.43 | 33.2 |
| COC[C@@H]1NC(=O)[C@H](C)N(Cc2ccc(Cl)cc2Oc2ccc(-c3cnc(CN4CCCC4)n3C)cc2)C(=O)C[C@@H](Cc2ccccc2)C(=O)N(C)[C@@H](CCCCNC(C)=O)CNC(=O)C[C@H](Cc2ccc(Cl)cc2)N(C)C1=O.O=C(O)C(F)(F)F [Compound 217, N-(4-((2S,5S,8S,13S,16R)-16-benzyl-1-(4-chloro-2-(4-(1-methyl-2-(pyrrolidin-1-ylmethyl)-1H-imidazol-5-yl)phenoxy)benzyl)-8-(4-chlorobenzyl)-5-(methoxymethyl)-2,7,14-trimethyl-3,6,10,15,18-pentaoxo-1,4,7,11,14-pentaazacyclooctadecan-13-yl)butyl)acetamide trifluoroacetate] | 95.74 | 0.7 |
| COCCN(CCOC)C(=O)C[C@H]1C(=O)N[C@@H](COC)C(=O)N(C)[C@@H](Cc2ccc(Cl)cc2)CC(=O)N[C@H]2CCCC[C@@H]2N(C)C(=O)[C@H](Cc2ccccc2)CC(=O)N1Cc1ccc(Cl)cc1Oc1ccc(-c2cnc(CN(C)C)n2C)cc1 [Compound 218, 2-((4S,7S,10S,14R,16aS,20aS)-14-benzyl-11-(4-chloro-2-(4-(2-((dimethylamino)methyl)-1-methyl-1H-imidazol-5-yl)phenoxy)benzyl)-4-(4-chlorobenzyl)-7-(methoxymethyl)-5,16-dimethyl-2,6,9,12,15-pentaoxodocosahydrobenzo[l][1,4,7,11,14]pentaazacyclooctadecin-10-yl)-N ,N-bis(2-methoxyethyl)acetamide] | 105.97 | 1 |
| COC[C@@H]1NC(=O)[C@H](CC(=O)O)N(Cc2ccc(Cl)cc2Oc2ccc(-c3cnc(CN(C)C)n3C)cc2)C(=O)C[C@@H](Cc2ccccc2)C(=O)N(C)[C@H]2CCCC[C@@H]2NC(=O)C[C@H](Cc2ccc(Cl)cc2)N(C)C1=O [Compound 219, 2-((4S,7S,10S,14R,16aS,20aS)-14-benzyl-11-(4-chloro-2-(4-(2-((dimethylamino)methyl)-1-methyl-1H-imidazol-5-yl)phenoxy)benzyl)-4-(4-chlorobenzyl)-7-(methoxymethyl)-5,16-dimethyl-2,6,9,12,15-pentaoxodocosahydrobenzo[l][1,4,7,11,14]pentaazacyclooctadecin-10-yl)acetic acid] | 105.15 | 0.9 |
| COC[C@@H]1NC(=O)[C@H](C)N(Cc2ccc(Cl)cc2Oc2ccc(-c3cnc(CN4CC[C@H](O)C4)n3C)cc2)C(=O)C[C@@H](Cc2ccccc2)C(=O)N(C)[C@@H](C)CNC(=O)C[C@H](Cc2ccc(Cl)cc2)N(C)C1=O [Compound 220, (2S,5S,8S,13S,16R)-16-benzyl-1-(4-chloro-2-(4-(2-(((S)-3-hydroxypyrrolidin-1-yl)methyl)-1-methyl-1H-imidazol-5-yl)phenoxy)benzyl)-8-(4-chlorobenzyl)-5-(methoxymethyl)-2,7,13,14-tetramethyl-1,4,7,11,14-pentaazacyclooctadecane-3,6,10,15,18-pentaone] | 94.82 | 2.1 |
| CCc1ccc(CN2C(=O)C[C@@H](Cc3ccccc3)C(=O)N(C)[C@H]3CCCC[C@@H]3NC(=O)C[C@H](Cc3ccc(Cl)cc3)N(C)C(=O)[C@H](COC)NC(=O)[C@@H]2C)c(Oc2ccc(-c3cnc(CN4CCCC4)n3C)cc2)c1 [Compound 223, (4S,7S,10S,14R,16aS,20aS)-14-benzyl-4-(4-chlorobenzyl)-11-(4-ethyl-2-(4-(1-methyl-2-(pyrrolidin-1-ylmethyl)-1H-imidazol-5-yl)phenoxy)benzyl)-7-(methoxymethyl)-5,10,16-trimethylhexadecahydrobenzo[l][1,4,7,11,14]pentaazacyclooctadecine-2,6,9,12,15(3H)-pentaone] | 100.16 | 1.8 |
| COC[C@@H]1NC(=O)[C@H](CCCCN(C)C)N(Cc2ccc(Cl)cc2Oc2ccc(-c3cnc(CN(C)C)n3C)cc2)C(=O)C[C@@H](Cc2ccccc2)C(=O)N(C)[C@@H](C)CNC(=O)C[C@H](Cc2ccc(Cl)cc2)N(C)C1=O [Compound 225, (2S,5S,8S,13S,16R)-16-benzyl-1-(4-chloro-2-(4-(2-((dimethylamino)methyl)-1-methyl-1H-imidazol-5-yl)phenoxy)benzyl)-8-(4-chlorobenzyl)-2-(4-(dimethylamino)butyl)-5-(methoxymethyl)-7,13,14-trimethyl-1,4,7,11,14-pentaazacyclooctadecane-3,6,10,15,18-pentaone] | 98.86 | 8 |
| C[C@H]1C(=O)N[C@@H](COC(=O)C(C)(C)C)C(=O)N(C)[C@@H](Cc2ccc(Cl)cc2)CC(=O)N[C@H]2CCCC[C@@H]2N(C)C(=O)[C@H](Cc2ccccc2)CC(=O)N1Cc1ccc(Cl)cc1Oc1ccc(-c2cnc(CN(C)C)n2C)cc1 [Compound 226, ((4S,7S,10S,14R,16aS,20aS)-14-benzyl-11-(4-chloro-2-(4-(2-((dimethylamino)methyl)-1-methyl-1H-imidazol-5-yl)phenoxy)benzyl)-4-(4-chlorobenzyl)-5,10,16-trimethyl-2,6,9,12,15-pentaoxodocosahydrobenzo[l][1,4,7,11,14]pentaazacyclooctadecin-7-yl)methyl pivalate] | 42.24 | 249 |
